Values quoted from earlier work, collected in US6610313B2, “Lysophospholipids composition with water solubility” (Doosan Corporation, priority 2001, dated 2003).

Experiments:
phospholipase D = conditions: Proc. Natl. Acad. Sci. USA, Vol.94, pp12717-12721
[1] = LPE alone
tomato = conditions: U.S. Pat. Nos. 5,220,341 and 5,126,155

inhibition effect of phospholipase D (phospholipase D) | water solubility of LPE itself [1] | Substance | aging of leaves and fruits of tomato (tomato) | storage time of tomato after harvesting (tomato)
opposite | – | lysophosphatidylglycerol [LPG, reference compound] | – | –
gradually decreases | – | lysophosphatidylinositol [LPI] | – | –

Second part, the substance before the results:

Substance | inhibition effect of phospholipase D (phospholipase D) | water solubility of LPE itself [1] | aging of leaves and fruits of tomato (tomato) | storage time of tomato after harvesting (tomato)
lysophosphatidylcholine [LPC] | only a slight activity | – | – | –
lysophosphatidylethanolamine [LPE] | most excellent | not water-soluble | inhibits the aging of leaves and fruits of tomato | extends the storage time of tomato after harvesting
lysophosphatidylic acid [LPA, reference compound] | cannot inhibit | – | – | –
lysophosphatidylserine [LPS, reference compound] | opposite | – | – | –
